From article PMC10607160 (International Journal of Molecular Sciences, 2023)
Like-named read-outs stand apart in the source and are kept apart here. Each block holds one compound with its values, some of them ahead of it.

Tests used:
[1] = target: E. coli Trx1 / E. coli TrxR (thioredoxin system) (Escherichia coli, UniProt P0AA25); assay: Disulfide bond reduction assay by EcoTrx1 (NADPH absorbance at 340 nm); format: biochemical; conditions: for Absorbance Asample1 / Absorbance Asample2 / Absorbance Average1, 2: A340, with TrxR
Protocol: The assay employed was based on changes in the absorbance at 340 nm from the oxidation of NADPH using a modified version of the protocol laid out in [90]. Briefly, the decrease in A340 was measured in 96-well plates containing 100 μL of 200 mM potassium phosphate pH 7.4, 1 mM EDTA, 0.1 mg/mL BSA, 200 μM NADPH, 2 μM E. coli Trx1 and 10 nM E. coli TrxR for 5 min at 25 °C with insulin at a final concentration of 0.067 mM (0.2 mM disulfides) (see Table S2). The reduction of con7 was measured at a final concentration of 0.2 mM (see Table S3). Blanks were samples without EcoTrxR.
Figure 4 Reduction of (A) con7 and (B) insulin by EcoTrx1. The assay mixture contains 200 mM potassium phosphate pH 7.4, 1 mM EDTA, 0.1 mg/mL BSA, 200 μM NADPH, 2 μM Escherichia coli Trx1, 10 nM E. coli TrxR, (A) 0.2 mM con7 or (B) 0.067 mM (0.2 mM disulfides) insulin. The reaction was carried out at 25 °C by monitoring the decrease of NADPH absorbance at 340 nm for (A) con7 in the absence ( [drawing 1] ) or presence of TrxR ( [drawing 2] ) and (B) insulin in the absence ( [drawing 3] ) or presence of TrxR ( [drawing 4] ).

human GnRHR I = target: T1, human GnRHR I (Homo sapiens, UniProt P30968); assay: Competitive radioligand binding (125I-DTyr6-His5-GnRH) on membranes from HEK 293 cells stably expressing GnRHR I
T1 construct: expressed in transfected cells
T1 sequence (P30968 1-328): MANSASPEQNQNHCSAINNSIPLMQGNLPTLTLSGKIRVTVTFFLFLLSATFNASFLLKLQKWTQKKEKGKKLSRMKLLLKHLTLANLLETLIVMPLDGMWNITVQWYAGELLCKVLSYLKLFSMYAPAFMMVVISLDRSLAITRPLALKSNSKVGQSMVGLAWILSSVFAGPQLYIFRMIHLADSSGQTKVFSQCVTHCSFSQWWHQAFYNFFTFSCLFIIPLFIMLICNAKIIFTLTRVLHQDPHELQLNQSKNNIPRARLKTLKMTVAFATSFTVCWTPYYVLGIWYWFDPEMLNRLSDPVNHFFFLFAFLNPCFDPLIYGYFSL

[2] = competition with 125I-DTyr6-His5-GnRH, HEK 293 membranes, 4 °C 16-19 h, one-site model, read-out: apparent binding affinity (IC50)

Chain of E. coli Trx1 / E. coli TrxR (thioredoxin system) (P0AA25 2-109): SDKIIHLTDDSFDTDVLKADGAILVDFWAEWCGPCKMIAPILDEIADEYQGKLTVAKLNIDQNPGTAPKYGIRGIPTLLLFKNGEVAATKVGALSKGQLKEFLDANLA

Compound: insulin
- Absorbance Asample1 ([1]; 0 sec): 0.236
- Absorbance Asample2 ([1]; 0 sec): 0.257
- Absorbance Average1, 2 ([1]; 0 sec): 0.247
- Absorbance Asample1 ([1]; 9 sec): 0.236
- Absorbance Asample2 ([1]; 9 sec): 0.257
- Absorbance Average1, 2 ([1]; 9 sec): 0.247
- Absorbance Asample1 ([1]; 18 sec): 0.236
- Absorbance Asample2 ([1]; 18 sec): 0.257
- Absorbance Average1, 2 ([1]; 18 sec): 0.247
- Absorbance Asample1 ([1]; 27 sec): 0.235
- Absorbance Asample2 ([1]; 27 sec): 0.257
- Absorbance Average1, 2 ([1]; 27 sec): 0.246
- Absorbance Asample1 ([1]; 36 sec): 0.236
- Absorbance Asample2 ([1]; 36 sec): 0.256
- Absorbance Average1, 2 ([1]; 36 sec): 0.246
- Absorbance Asample1 ([1]; 45 sec): 0.235
- Absorbance Asample2 ([1]; 45 sec): 0.256
- Absorbance Average1, 2 ([1]; 45 sec): 0.246
- Absorbance Asample1 ([1]; 54 sec): 0.235
- Absorbance Asample2 ([1]; 54 sec): 0.255
- Absorbance Average1, 2 ([1]; 54 sec): 0.245
- Absorbance Asample1 ([1]; 63 sec): 0.235
- Absorbance Asample2 ([1]; 63 sec): 0.256
- Absorbance Average1, 2 ([1]; 63 sec): 0.246
- Absorbance Asample1 ([1]; 72 sec): 0.235
- Absorbance Asample2 ([1]; 72 sec): 0.255
- Absorbance Average1, 2 ([1]; 72 sec): 0.245
- Absorbance Asample1 ([1]; 81 sec): 0.233
- Absorbance Asample2 ([1]; 81 sec): 0.254
- Absorbance Average1, 2 ([1]; 81 sec): 0.244
- Absorbance Asample1 ([1]; 90 sec): 0.235
- Absorbance Asample2 ([1]; 90 sec): 0.255
- Absorbance Average1, 2 ([1]; 90 sec): 0.245
- Absorbance Asample1 ([1]; 99 sec): 0.234
- Absorbance Asample2 ([1]; 99 sec): 0.254
- Absorbance Average1, 2 ([1]; 99 sec): 0.244
- Absorbance Asample1 ([1]; 108 sec): 0.234
- Absorbance Asample2 ([1]; 108 sec): 0.255
- Absorbance Average1, 2 ([1]; 108 sec): 0.245
- Absorbance Asample1 ([1]; 117 sec): 0.235
- Absorbance Asample2 ([1]; 117 sec): 0.253
- Absorbance Average1, 2 ([1]; 117 sec): 0.244
- Absorbance Asample1 ([1]; 126 sec): 0.234
- Absorbance Asample2 ([1]; 126 sec): 0.253
- Absorbance Average1, 2 ([1]; 126 sec): 0.244
- Absorbance Asample1 ([1]; 135 sec): 0.235
- Absorbance Asample2 ([1]; 135 sec): 0.253
- Absorbance Average1, 2 ([1]; 135 sec): 0.244
- Absorbance Asample1 ([1]; 144 sec): 0.234
- Absorbance Asample2 ([1]; 144 sec): 0.253
- Absorbance Average1, 2 ([1]; 144 sec): 0.244
- Absorbance Asample1 ([1]; 153 sec): 0.232
- Absorbance Asample2 ([1]; 153 sec): 0.252
- Absorbance Average1, 2 ([1]; 153 sec): 0.242
- Absorbance Asample1 ([1]; 162 sec): 0.233
- Absorbance Asample2 ([1]; 162 sec): 0.253
- Absorbance Average1, 2 ([1]; 162 sec): 0.243
- Absorbance Asample1 ([1]; 171 sec): 0.233
- Absorbance Asample2 ([1]; 171 sec): 0.252
- Absorbance Average1, 2 ([1]; 171 sec): 0.243
- Absorbance Asample1 ([1]; 180 sec): 0.233
- Absorbance Asample2 ([1]; 180 sec): 0.252
- Absorbance Average1, 2 ([1]; 180 sec): 0.243
- Absorbance Asample1 ([1]; 189 sec): 0.232
- Absorbance Asample2 ([1]; 189 sec): 0.252
- Absorbance Average1, 2 ([1]; 189 sec): 0.242
- Absorbance Asample1 ([1]; 198 sec): 0.233
- Absorbance Asample2 ([1]; 198 sec): 0.252
- Absorbance Average1, 2 ([1]; 198 sec): 0.243
- Absorbance Asample1 ([1]; 207 sec): 0.232
- Absorbance Asample2 ([1]; 207 sec): 0.252
- Absorbance Average1, 2 ([1]; 207 sec): 0.242
- Absorbance Asample1 ([1]; 216 sec): 0.233
- Absorbance Asample2 ([1]; 216 sec): 0.252
- Absorbance Average1, 2 ([1]; 216 sec): 0.243
- Absorbance Asample1 ([1]; 225 sec): 0.232
- Absorbance Asample2 ([1]; 225 sec): 0.252
- Absorbance Average1, 2 ([1]; 225 sec): 0.242
- Absorbance Asample1 ([1]; 234 sec): 0.232
- Absorbance Asample2 ([1]; 234 sec): 0.252
- Absorbance Average1, 2 ([1]; 234 sec): 0.242
- Absorbance Asample1 ([1]; 243 sec): 0.231
- Absorbance Asample2 ([1]; 243 sec): 0.251
- Absorbance Average1, 2 ([1]; 243 sec): 0.241
- Absorbance Asample1 ([1]; 252 sec): 0.231
- Absorbance Asample2 ([1]; 252 sec): 0.251
- Absorbance Average1, 2 ([1]; 252 sec): 0.241
- Absorbance Asample1 ([1]; 261 sec): 0.230
- Absorbance Asample2 ([1]; 261 sec): 0.250
- Absorbance Average1, 2 ([1]; 261 sec): 0.240
- Absorbance Asample1 ([1]; 270 sec): 0.230
- Absorbance Asample2 ([1]; 270 sec): 0.250
- Absorbance Average1, 2 ([1]; 270 sec): 0.240
- Absorbance Asample1 ([1]; 279 sec): 0.231
- Absorbance Asample2 ([1]; 279 sec): 0.251
- Absorbance Average1, 2 ([1]; 279 sec): 0.241
- Absorbance Asample1 ([1]; 288 sec): 0.230
- Absorbance Asample2 ([1]; 288 sec): 0.250
- Absorbance Average1, 2 ([1]; 288 sec): 0.240
- Absorbance Asample1 ([1]; 297 sec): 0.229
- Absorbance Asample2 ([1]; 297 sec): 0.250
- Absorbance Average1, 2 ([1]; 297 sec): 0.240
- reduction of disulfide bond by the thioredoxin system ([1]; decrease of NADPH absorbance over time in samples containing TrxR): successful

- IC50 (human GnRHR I; [2]): 0.7 nM
Compound: CCNC(=O)[C@@H]1CCCN1C(=O)[C@H](CCCNC(=N)N)NC(=O)[C@H](CC(C)C)NC(=O)[C@@H](CS)NC(=O)[C@H](Cc1ccc(O)cc1)NC(=O)[C@H](CO)NC(=O)[C@H](Cc1c[nH]c2ccccc12)NC(=O)[C@H](Cc1c[nH]cn1)NC(=O)[C@@H]1CCC(=O)N1 [analogue 2, [DCys^6, Pro^9-NHEt]GnRH]

Compound: CCNC(=O)[C@@H]1CCCN1C(=O)[C@H](CCCNC(=N)N)NC(=O)[C@H](CC(C)C)NC(=O)[C@@H](CCCCNC(=O)CCCCCNC(=O)CCSSCC(=O)NCCCCNc1ccc(O)c2c1C(=O)c1ccccc1C2=O)NC(=O)[C@H](Cc1ccc(O)cc1)NC(=O)[C@H](CO)NC(=O)[C@H](Cc1c[nH]c2ccccc12)NC(=O)[C@H](Cc1c[nH]cn1)NC(=O)[C@@H]1CCC(=O)N1 [con6]
- IC50 (human GnRHR I; [2]): 0.07 nM

Compound: O=C1c2c(O)ccc(O)c2C(=O)c2c(NCCNCCO)ccc(NCCNCCO)c21 [mitoxantrone, reference compound]
- apparent binding affinity (IC50) (human GnRHR I; competition with 125I-DTyr6-His5-GnRH, HEK 293 membranes, 4 °C 16-19 h, one-site model): did not bind
- IC50 (human GnRHR I; [2]): > 1000 nM

Compound: CCNC(=O)[C@@H]1CCCN1C(=O)[C@H](CCCNC(=N)N)NC(=O)[C@H](CC(C)C)NC(=O)[C@@H](CSSCCC(=O)OCCNCCNc1ccc(NCCNCCO)c2c1C(=O)c1c(O)ccc(O)c1C2=O)NC(=O)[C@H](Cc1ccc(O)cc1)NC(=O)[C@H](CO)NC(=O)[C@H](Cc1c[nH]c2ccccc12)NC(=O)[C@H](Cc1c[nH]cn1)NC(=O)[C@@H]1CCC(=O)N1 [con3]
- IC50 (human GnRHR I): 0.07 nM

- IC50 (human GnRHR I; [2]): 2.5 nM
Compound: CCNC(=O)[C@@H]1CCCN1C(=O)[C@H](CCCNC(=N)N)NC(=O)[C@H](CC(C)C)NC(=O)[C@@H](CCCCN)NC(=O)[C@H](Cc1ccc(O)cc1)NC(=O)[C@H](CO)NC(=O)[C@H](Cc1c[nH]c2ccccc12)NC(=O)[C@H](Cc1c[nH]cn1)NC(=O)[C@@H]1CCC(=O)N1 [analogue 4, (DLys^6, Pro^9-NHEt)GnRH]
